Laboratory results from US5612217A, “Streptomyces sp. MA 7074 (ATCC 55605) used for microbial synthesis of HIV protease inhibitors” (Merck & Co., Inc., priority 1994, dated 1997).

Target: T1, HIV protease (Human immunodeficiency virus type 1 group M subtype B, UniProt P03366)
T1 construct: the protease expressed in Eschericia coli; made in house; host or cells: Escherichia coli
Assay: Assay for inhibition of microbial expressed HIV protease (in vitro, peptide substrate cleavage, HPLC)
Assay type: biochemical
Conditions: for % Potency Relative to Compound J, Based On Nominal Wt. / % Potency Relative to Compound J, Based on HPLC: IC50 of Compound J / IC50 of test compound x 100; for % Potency Relative to Compound J, Based On Nominal Wt.: dilution based on nominal weight; for % Potency Relative to Compound J, Based on HPLC: concentration checked by HPLC using J as standard
Procedure: Inhibition studies of the reaction of the protease expressed in Eschericia coli with a peptide substrate [Val-Ser-Gln-Asn-(betanapthyl)Ala-Pro-Ile-Val, 0.5 mg/mL at the time the reaction is initiated] were in 50 mM Na acetate, pH 5.5, at 30° C. for 1 hour. Various concentrations of inhibitor in 1.0 μl DMSO were added to 25 μl of the peptide solution in water. The reaction is initiated by the addition of 15 μl of 0.33 nM protease (0.11 ng) in a solution of 0.133M Na acetate pH 5.5 and 0.1% bovine serum albumin. The reaction was quenched with 160 μl of 5% phosphoric acid. Products of the reaction were separated by HPLC (VYDAC wide pore 5 cm C-18 reverse phase, acetonitrile gradient, 0.1% phosphoric acid). The extent of inhibition of the reaction was determined as IC50 from the peak heights of the products.
Seven Compound J bioconversion products were assayed for in vitro HIV protease inhibitory by the assay for inhibition of microbial expressed HIV Protease, protocol given above. Two of the bioconversion products were isolated from MA7074 incubations, Compounds B1 and F. The IC50 of the parent Compound J was divided by the IC50 of each test compound and multiplied by 100 in order to calculate the percent potency of each compound relative to J.
In some cases, the dilution of the test compound was based on nominal weight. In other cases, especially when the weight was less than 250 μg, the concentration was checked by HPLC using J as standard.

| SMILES | % Potency Relative to Compound J, Based On Nominal Wt. [%] | HIV-protease activity (in words) (qualitative statement, compared with Compound J where stated) | % Potency Relative to Compound J, Based on HPLC [%] |
| --- | --- | --- | --- |
| CC(C)(C)NC(=O)[C@@H]1CN(Cc2cccnc2)CCN1C[C@@H](O)C[C@@H](Cc1ccccc1)C(=O)N[C@H]1c2ccccc2C(=O)[C@H]1O [Compound F] | 16 | less HIV-protease activity than Compound J | – |
| CC(C)(C)NC(=O)[C@@H]1CN(Cc2ccc[n+]([O-])c2)CCN1C[C@@H](O)C[C@@H](Cc1ccccc1)C(=O)N[C@H]1c2ccccc2C[C@H]1O [E] | 34 | – | – |
| CC(C)(C)NC(=O)[C@@H]1CN(Cc2cccnc2)CCN1C[C@@H](O)C[C@@H](Cc1ccc(O)cc1)C(=O)N[C@H]1c2ccccc2C[C@H]1O [D] | 3.1 | – | 31 |
| CC(C)(C)NC(=O)[C@@H]1CN(Cc2cccnc2)CCN1C[C@@H](O)C[C@@H](Cc1ccccc1)C(=O)N[C@H]1c2ccccc2[C@H](O)[C@H]1O [A] | 27 | – | – |
| CC(C)(C)NC(=O)[C@@H]1CN(Cc2cccnc2)CCN1C[C@@H](O)C[C@@H](Cc1ccccc1)C(=O)N[C@H]1c2ccccc2[C@@H](O)[C@H]1O [Compound B1] | – | – | 115 |
